The values that follow are results of earlier work, collected in patent US8859761B2, “Refining process of Cefamandole sodium” (Hainan Lingkang Pharmaceutical Co., Ltd., priority 2011, dated 2014).

`Cn1nnnc1SCC1=C(C(=O)[O-])N2C(=O)C(NC(=O)C(OC=O)c3ccccc3)C2SC1.[Na+]` [Cefamandole nafate, sodium 7-D-(2-formyloxyphenylacetamide)-3-[(1-methyl-1H-tetrazol-5-yl)thiomethyl]-3-cephem-4-carboxylate]: the solubility in ethanol result (ethanol) is “almost insoluble”. In addition, for the setting “water”, the solubility in water result is “dissolves well”.
